Measured values: patent publication US20250281679A1, “BIOMIMETIC COATING FOR ENDOVASCULAR STENT” (INSERM (Institut National de la Santé et de la Recherche …, priority 2021, published 2025)
Square brackets hold non-standard residues; d marks the D form. Primed or numbered codes have the meaning given here. Ends that are not written are not given here. Lys(N3) = [N-]=[N+]=NCCCC[C@H](N)C(=O)O; hCys = N[C@@H](CCS)C(=O)O; PEG4′ = not defined here

System: Human aortic endothelial cells
Experiment: Human aortic endothelial cells grown 48 h on bare or peptide-coated nitinol disks; F-actin and CD31 fluorescence image analysis
Type: cell-based
Settings: for CD31/Actin score: Example 2, FIG. 25, compared to bare metal disks or disks coated with PDA alone; for CD31 expression, Integrated Density / F-actin expression (cellular stress), Integrated Density: HAEC 48 h on coated nitinol disks; for CD31 expression, Integrated Density: anti-CD31 domain 1 antibody, compared to other modified disks and bare controls, FIGS. 2, 4, 5; for F-actin expression (cellular stress), Integrated Density: phalloidin staining, compared to bare metal, FIGS. 2, 3, 5
Experimental: Nitinol disks are left untouched (bare metal) or coated with a domain 1, domain 2 or domain 1 and 2 CD31 analog peptide. The tested peptide is grafted to the nitinol disk following a polydopamine, DBCO-PEG4-amine and azide CD31 derivative peptide using a sequential dip-coating layering procedure. After this step, all the disks are incubated with Human aortic endothelial cells for 48h. Disks are then rinsed and the cells are fixed in a formalin solution before staining. The staining is fulfilled using phalloidin coupled to AlexaFluor®488 dye (green fluorescence for Actin), DAPI is used for DNA staining and a domain 1 CD31 antibody coupled to APC is used for external Domain 1 staining. The cell adhesion and Actin/CD31 expression was evaluated by image analysis of the surface after staining.
In particular, as per FIG. 2 the bare or coated nitinol disks were placed at the bottom of culture wells. Primary Human Aortic Endothelial Cells (HAEC) were allowed to grow on the disks for a period of 48 h. The disks were thereafter rinsed with phosphate buffered saline, fixed in formalin, and processed for fluorescence microscopy. Disk-adherent cells were immersed in a solution comprising Hoechst 33342 (1 μg/ml, to stain the nuclei), phalloidin coupled to AlexaFluor®488 dye (0.5 μM, to stain F-actin fibers) and a monoclonal antibody directed against CD31 domain 1, coupled to allophycocyanin (to detect the presence and localization of intact CD31 at the cell surface) for 1 hour at 37° C., washed and mounted face down on glass bottom imaging chambers for imaging with an inverted fluorescence microscope.
Surface type is indicated on the Y axis, data are expressed as average±SD (N=6/surface type). Each dot corresponds to a specific surface modification. The F-actin expression relates the cellular stress of the cell in presence of the exogenous material.
In FIG. 4 the surface type is indicated on the Y axis. Each dot corresponds to a specific surface modification. Data are expressed as “Integrated Density” average±SD (N=6/surface type). CD31 expression relates the capacity of endothelial cells to adopt a physiologic phenotype while growing on a given substrate. An important variability is observed in terms of CD31 expression by HAEC according to the surface modification of the nitinol disks.
The effect of different peptides, belonging to the different groups, were tested in batches following the same protocol as in FIG. 6. Different peptides from each group were tested in batches and the effect of individual peptides was repeatedly assessed in separate experiments. Data from all experiments were obtained by computer-assisted analysis of images of the disk side covered with endothelial cells, captured in the blue, green and red channel of an inverted fluorescence microscope. The functional score of the peptides belonging to the different groups was calculated by multiplying the number of cells (as detected by the number of blue, Dapi+ nuclei) for the integrated density of CD31 expression (red signal provided by the binding of a mouse anti-human CD31 monoclonal antibody, clone 9G11, conjugated allophycocyanin) and their product being divided for the integrated density of the F-actin polymerization (Phalloidin coupled to a green fluorochrome).
The same protocol as in Example 1 was followed, using peptides according to the invention (SP547, SP548 SP745, SP1374, SP1072, SP1070, SP1071, SP1379 and SP1383) as defined above and the prior art peptide P8RI of sequence KWPALFVR (SEQ ID NO: 52).
The “CD31/Actin” score, resulting from the integrated density of CD31 immunostaining signal divided by the signal of phalloidin, which binds to the polymerized F-actin of the cytoskeleton, has been used to identify the physiological/non-stressed character of the arterial endothelial cells growing onto the surface of experimental disks placed at the bottom of culture wells. […]

Substance | CD31/Actin score | CD31 expression, Integrated Density (listed as 1374) | CD31 expression, Integrated Density (listed as SP 1374) | F-actin expression (cellular stress), Integrated Density | ratio between CD31 and F-actin expression (compared to bare metal and disks coated with PDA only, FIG. 6)
Ac-K(N3)-GGSGGSGG-YKDDVLFYNISSMKST-NH2 (Ac-[Lys(N3)]GGSGGSGGYKDDVLFYNISSMKST-NH2; SMILES CC[C@H](C)[C@H](NC(=O)[C@H](CC(N)=O)NC(=O)[C@H](Cc1ccc(O)cc1)NC(=O)[C@H](Cc1ccccc1)NC(=O)[C@H](CC(C)C)NC(=O)[C@@H](NC(=O)[C@H](CC(=O)O)NC(=O)[C@H](CC(=O)O)NC(=O)[C@H](CCCCN)NC(=O)[C@H](Cc1ccc(O)cc1)NC(=O)CNC(=O)CNC(=O)[C@H](CO)NC(=O)CNC(=O)CNC(=O)[C@H](CO)NC(=O)CNC(=O)CNC(=O)[C@H](CCCCN=[N+]=[N-])NC(C)=O)C(C)C)C(=O)N[C@@H](CO)C(=O)N[C@@H](CO)C(=O)N[C@@H](CCSC)C(=O)N[C@@H](CCCCN)C(=O)N[C@@H](CO)C(=O)N[C@H](C(N)=O)[C@@H](C)O) [SP547] | equivalent to those of sections coated by other peptides according to the invention | – | – | – | –
hCHQMLFYKDDVLFYNISShCK-Ttds-Ttds-Ttds-Ttds-K(N3)-CONH2 ([hCys]HQMLFYKDDVLFYNISS[hCys]K-{Ttds-Ttds-Ttds-Ttds-Lys(N3)-NH2}; cysteine pairing not given here) [SP1374] | significantly higher | evident positive effect in terms of CD31 expression | consistent functional endothelial phenotype (high CD31 expression) | low cellular stress (low actin expression) | higher CD31/actin ratio
[^#CH2CONH2GTYKSTVIVNNKEKTTAEYQ-(Ttds)4-K(N3)-NH2]-[QHQMLFYhC^#DDVLFYNISSMK-CONH2] (chain 1 GTYKSTVIVNNKEKTTAEYQ-{Ttds-Ttds-Ttds-Ttds-Lys(N3)-NH2}; chain 2 QHQMLFY[hCys]DDVLFYNISSMK-NH2; not fully specified (N-terminus); also: thioether at chain B 8 to a chain's N-terminus) [SP1379] | significantly higher | – | – | – | –
SHQMLFYKDDVLFYNISSS-GGSGGSGG-K(N3)-CONH2 (SHQMLFYKDDVLFYNISSSGGSGGSGG[Lys(N3)]-NH2; N-terminus assumed; SMILES CC[C@H](C)[C@H](NC(=O)[C@H](CC(N)=O)NC(=O)[C@H](Cc1ccc(O)cc1)NC(=O)[C@H](Cc1ccccc1)NC(=O)[C@H](CC(C)C)NC(=O)[C@@H](NC(=O)[C@H](CC(=O)O)NC(=O)[C@H](CC(=O)O)NC(=O)[C@H](CCCCN)NC(=O)[C@H](Cc1ccc(O)cc1)NC(=O)[C@H](Cc1ccccc1)NC(=O)[C@H](CC(C)C)NC(=O)[C@H](CCSC)NC(=O)[C@H](CCC(N)=O)NC(=O)[C@H](Cc1c[nH]cn1)NC(=O)[C@@H](N)CO)C(C)C)C(=O)N[C@@H](CO)C(=O)N[C@@H](CO)C(=O)N[C@@H](CO)C(=O)NCC(=O)NCC(=O)N[C@@H](CO)C(=O)NCC(=O)NCC(=O)N[C@@H](CO)C(=O)NCC(=O)NCC(=O)N[C@@H](CCCCN=[N+]=[N-])C(N)=O) [SP745] | significantly higher | – | – | – | –
Ac-K(N3)-PEG4-PRVTLDKKEAIQGGIVRVNSSVPEEK-CONH2 (Ac-[Lys(N3)][PEG4′]PRVTLDKKEAIQGGIVRVNSSVPEEK-NH2) [SP1071] | significantly higher | – | – | – | –
RDQNFVILEFP-PEG4-K(N3)-NH2 [SP1070] | significantly higher | – | – | does not show an influence on the cellular stress | –
